According to patent publication US8969516B2, “Method of hydrolysis of peptide bond” (priority 2006, dated 2015):

Test: MALDI-TOF screening of Ni^2+ dependent hydrolysis in a combinatorial peptide library
Assay type: physicochemical
Settings: Ni^2+ 2 mM, pH 8.2, 10 mM Tris, score=24/tm
In short: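 Sublibraries of Ac-Gly-Ala-Ser/Thr-X-His-Z-Lys-Phe-Leu-NH2, randomized at Z and fixed at X, were hydrolyzed at 1 mM total peptide with 2 mM Ni2+ in 10 mM Tris, pH 8.2, at 37 °C or 45 °C. Cleavage was scored visually in MALDI-TOF spectra at 2, 4, 6 and 8 h.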

[1] = CH3CO-Gly-Ala-Ser-X-His-Z-Lys-Phe-Leu-NH2 library, 37° C.
[2] = CH3CO-Gly-Ala-Ser-X-His-Z-Lys-Phe-Leu-NH2 library, 45° C.
[3] = CH3CO-Gly-Ala-Thr-X-His-Z-Lys-Phe-Leu-NH2 library, 37° C.
[4] = CH3CO-Gly-Ala-Thr-X-His-Z-Lys-Phe-Leu-NH2 library, 45° C.

Substance | hydrolysis score from MALDI-TOF screening [1] | hydrolysis score from MALDI-TOF screening [2] | hydrolysis score from MALDI-TOF screening [3] | hydrolysis score from MALDI-TOF screening [4]
Ac-GASQHEKFL-NH2 [SQHE] | 0 (a score of 0 if no trace of the product of hydrolysis was seen after 8 hours of incubation) | 0 (a score of 0 if no trace of the product of hydrolysis was seen after 8 hours of incubation) | – | –
Ac-GATGHLKFL-NH2 [TGHL] | – | – | 0 (a score of 0 if no trace of the product of hydrolysis was seen after 8 hours of incubation) | 0 (a score of 0 if no trace of the product of hydrolysis was seen after 8 hours of incubation)
Ac-GASAHSKFL-NH2 [SAHS] | 0 (a score of 0 if no trace of the product of hydrolysis was seen after 8 hours of incubation) | 0 (a score of 0 if no trace of the product of hydrolysis was seen after 8 hours of incubation) | – | –
Ac-GASKHQKFL-NH2 [SKHQ] | 0 (a score of 0 if no trace of the product of hydrolysis was seen after 8 hours of incubation) | 0 (a score of 0 if no trace of the product of hydrolysis was seen after 8 hours of incubation) | – | –
Ac-GASHHVKFL-NH2 [SHHV] | 6 (a score of 6 for detection at 4 hours) | 6 (a score of 6 for detection at 4 hours) | – | –
Ac-GATYHYKFL-NH2 [TYHY] | – | – | 0 (a score of 0 if no trace of the product of hydrolysis was seen after 8 hours of incubation) | 0 (a score of 0 if no trace of the product of hydrolysis was seen after 8 hours of incubation)
Ac-GASTHHKFL-NH2 [STHH] | 0 (a score of 0 if no trace of the product of hydrolysis was seen after 8 hours of incubation) | 3 (a score of 3 for detection at 8 hours) | – | –
Ac-GATWHSKFL-NH2 [TWHS] | – | – | 0 (a score of 0 if no trace of the product of hydrolysis was seen after 8 hours of incubation) | 0 (a score of 0 if no trace of the product of hydrolysis was seen after 8 hours of incubation)
Ac-GASFHMKFL-NH2 [SFHM] | 0 (a score of 0 if no trace of the product of hydrolysis was seen after 8 hours of incubation) | 3 (a score of 3 for detection at 8 hours) | – | –
Ac-GASAHVKFL-NH2 [SAHV] | 0 (a score of 0 if no trace of the product of hydrolysis was seen after 8 hours of incubation) | 3 (a score of 3 for detection at 8 hours) | – | –
Ac-GATIHKKFL-NH2 [TIHK] | – | – | 0 (a score of 0 if no trace of the product of hydrolysis was seen after 8 hours of incubation) | 3 (a score of 3 for detection at 8 hours)
Ac-GASIHNKFL-NH2 [SIHN] | 0 (a score of 0 if no trace of the product of hydrolysis was seen after 8 hours of incubation) | 0 (a score of 0 if no trace of the product of hydrolysis was seen after 8 hours of incubation) | – | –
Ac-GATPHHKFL-NH2 [TPHH] | – | – | – | 0 (a score of 0 if no trace of the product of hydrolysis was seen after 8 hours of incubation)
Ac-GATHHPKFL-NH2 [THHP] | – | – | 0 (a score of 0 if no trace of the product of hydrolysis was seen after 8 hours of incubation) | 0 (a score of 0 if no trace of the product of hydrolysis was seen after 8 hours of incubation)
Ac-GATWHRKFL-NH2 [TWHR] | – | – | 3 (a score of 3 for detection at 8 hours) | 4 (a score of 4 for detection at 6 hours)
Ac-GATRHFKFL-NH2 [TRHF] | – | – | 3 (a score of 3 for detection at 8 hours) | 4 (a score of 4 for detection at 6 hours)
Ac-GASNHVKFL-NH2 [SNHV] | 3 (a score of 3 for detection at 8 hours) | 3 (a score of 3 for detection at 8 hours) | – | –
Ac-GASIHWKFL-NH2 [SIHW] | 3 (a score of 3 for detection at 8 hours) | 3 (a score of 3 for detection at 8 hours) | – | –
Ac-GASMHWKFL-NH2 [SMHW] | 4 (a score of 4 for detection at 6 hours) | 6 (a score of 6 for detection at 4 hours) | – | –

Substance | hydrolysis score from MALDI-TOF screening [1] | hydrolysis score from MALDI-TOF screening [2] | hydrolysis score from MALDI-TOF screening [3] | hydrolysis score from MALDI-TOF screening [4]
Ac-GASIHFKFL-NH2 [SIHF] | 0 (a score of 0 if no trace of the product of hydrolysis was seen after 8 hours of incubation) | 0 (a score of 0 if no trace of the product of hydrolysis was seen after 8 hours of incubation) | – | –
Ac-GATHHKKFL-NH2 [THHK] | – | – | 6 (a score of 6 for detection at 4 hours) | 12 (a score of 12, if it was seen to be partially hydrolysed at 2 hours)
Ac-GATHHIKFL-NH2 [THHI] | – | – | 3 (a score of 3 for detection at 8 hours) | 12 (a score of 12, if it was seen to be partially hydrolysed at 2 hours)
Ac-GATTHMKFL-NH2 [TTHM] | – | – | 0 (a score of 0 if no trace of the product of hydrolysis was seen after 8 hours of incubation) | 0 (a score of 0 if no trace of the product of hydrolysis was seen after 8 hours of incubation)
Ac-GATTHVKFL-NH2 [TTHV] | – | – | 0 (a score of 0 if no trace of the product of hydrolysis was seen after 8 hours of incubation) | 0 (a score of 0 if no trace of the product of hydrolysis was seen after 8 hours of incubation)
Ac-GASNHLKFL-NH2 [SNHL] | 4 (a score of 4 for detection at 6 hours) | 4 (a score of 4 for detection at 6 hours) | – | –
Ac-GATFHNKFL-NH2 [TFHN] | – | – | 0 (a score of 0 if no trace of the product of hydrolysis was seen after 8 hours of incubation) | 0 (a score of 0 if no trace of the product of hydrolysis was seen after 8 hours of incubation)
Ac-GASPHTKFL-NH2 [SPHT] | 0 (a score of 0 if no trace of the product of hydrolysis was seen after 8 hours of incubation) | 0 (a score of 0 if no trace of the product of hydrolysis was seen after 8 hours of incubation) | – | –
Ac-GASLHHKFL-NH2 [SLHH] | 0 (a score of 0 if no trace of the product of hydrolysis was seen after 8 hours of incubation) | 0 (a score of 0 if no trace of the product of hydrolysis was seen after 8 hours of incubation) | – | –
Ac-GATPHFKFL-NH2 [TPHF] | – | – | – | 0 (a score of 0 if no trace of the product of hydrolysis was seen after 8 hours of incubation)
Ac-GASYHIKFL-NH2 [SYHI] | 4 (a score of 4 for detection at 6 hours) | 6 (a score of 6 for detection at 4 hours) | – | –
Ac-GATSHTKFL-NH2 [TSHT] | – | – | 0 (a score of 0 if no trace of the product of hydrolysis was seen after 8 hours of incubation) | 0 (a score of 0 if no trace of the product of hydrolysis was seen after 8 hours of incubation)
Ac-GATLHGKFL-NH2 [TLHG] | – | – | 0 (a score of 0 if no trace of the product of hydrolysis was seen after 8 hours of incubation) | 0 (a score of 0 if no trace of the product of hydrolysis was seen after 8 hours of incubation)
Ac-GASQHAKFL-NH2 [SQHA] | 0 (a score of 0 if no trace of the product of hydrolysis was seen after 8 hours of incubation) | 3 (a score of 3 for detection at 8 hours) | – | –
Ac-GASVHEKFL-NH2 [SVHE] | 0 (a score of 0 if no trace of the product of hydrolysis was seen after 8 hours of incubation) | 0 (a score of 0 if no trace of the product of hydrolysis was seen after 8 hours of incubation) | – | –
Ac-GATPHPKFL-NH2 [TPHP] | – | – | – | 0 (a score of 0 if no trace of the product of hydrolysis was seen after 8 hours of incubation)
Ac-GASMHTKFL-NH2 [SMHT] | 0 (a score of 0 if no trace of the product of hydrolysis was seen after 8 hours of incubation) | 0 (a score of 0 if no trace of the product of hydrolysis was seen after 8 hours of incubation) | – | –
Ac-GATNHWKFL-NH2 [TNHW] | – | – | 0 (a score of 0 if no trace of the product of hydrolysis was seen after 8 hours of incubation) | 3 (a score of 3 for detection at 8 hours)
